In the case of `C[C@H]1CCC[C@H](C)C1` (relative stereo) [trans-1,3-dimethylcyclohexane], the flash point worked out at 8 °C.

For the compound `CC1(C)CCCC1` [1,1-dimethylcyclopentane], the flash point is -16 °C.

`C=CCC=CC` [1,4-hexadiene]: the flash point is -25 °C.

On to `CCc1ccccc1C(C)C` [1-ethyl-2-isopropylbenzene], for which the flash point came to 58 °C.

The compound `CCCC(C)(C)C(C)(C)C` [2,2,3,3-tetramethylhexane] showed a flash point of 31 °C.

With `CC(C)(C)CCC(C)(C)C` [2,2,5,5-tetramethylhexane], the flash point is 16 °C.

In turn, `CC(C)C(C)(C)C(C)C` [2,3,3,4-tetramethylpentane] showed a flash point of 11 °C.

For the compound `C=C(C)C(C)(C)C` [2,3,3-trimethyl-1-butene], the flash point is -17 °C.

As to `C=C(C)C(C)CC` (stereo not given) [2,3-dimethyl-1-pentene], the flash point was -17 °C.

Regarding `CCC(C)CCCC(C)C` (stereo not given) [2,6-dimethyloctane], the flash point stood at 34 °C.

As to `C=C(CC)CCC` [2-ethyl-1-pentene], the flash point is -10 °C.

On to `C#CC(C)(C)C` [3,3-dimethyl-1-butyne], for which the flash point was -34 °C.

As to `CCC(CC)C(C)C` [3-ethyl-2-methylpentane], the flash point was determined as 3 °C.

For `CCC(CC)CC` [3-ethylpentane], the flash point is -12 °C.

`CCCCCCC(C)CC` (stereo not given) [3-methylnonane] gave a flash point of 41 °C.

Turning to `C=CCC(C)(C)C` [4,4-dimethyl-1-pentene], the flash point is -12 °C.

Turning to `CC#CC(C)(C)C` [4,4-dimethyl-2-pentyne], the flash point is -10 °C.

Regarding `C=CCC(C)CC` (stereo not given) [4-methyl-1-hexene], the flash point is -15 °C.

With `C#CCC(C)C` [4-methyl-1-pentyne], the flash point was -24 °C.

Compound `CCCCC(C)CCC` (stereo not given) [4-methyloctane] gave a flash point of 22 °C.

As to `C=CCCC(C)C` [5-methyl-1-hexene], the flash point is -10 °C.

For the compound `C#CCCC(C)C` [5-methyl-1-hexyne], the flash point is -4 °C.

`C=CCCCCC(C)C` [7-methyl-1-octene]: the flash point was 18 °C.

As to `C[C@@H]1CCC[C@@H]1C` [cis-1,2-dimethylcyclopentane], the flash point was -4 °C.

In the case of `C/C=C\CCC` [cis-2-hexene], the flash point is -26 °C.

As for `C/C=C\CC` [cis-2-pentene], the flash point was -47 °C.

For `CC/C=C\CC` [cis-3-hexene], the flash point was -28 °C.

Compound `CC/C=C\CCCC` [cis-3-octene] had a flash point of 17 °C.

Compound `CCC/C=C\CCC` [cis-4-octene] gave a flash point of 17 °C.

On to `C1=CCCCCCC1` [cyclooctene], for which the flash point stood at 25 °C.

Take `CCC1CCCC1` [ethylcyclopentane]: the flash point was -4 °C.

As for `Cc1cccc(C(C)C)c1` [m-isopropyltoluene], the flash point came to 50 °C.

`CCCCCCCCCc1ccccc1` [n-nonylbenzene] gave a flash point of 117 °C.

Regarding `C[C@H]1CC[C@H](C)CC1` [trans-1,4-dimethylcyclohexane], the flash point turned out to be 6 °C.

The source holds these as a separate data set.
For the compound `C[Si](C)(Cl)CCC(F)(F)F` [Chlorodimethyl(3,3,3-trifluoropropyl) silane], the flash point was 20.00 °C.

As to `C[Si](C)(Cl)CCl` [Chloromethyldimethylchlorosilane], the flash point came out at 22.00 °C.

`Cl[Si](Cl)(Cl)C1CCCCC1` [Cyclohexyltrichlorosilane] returned a flash point of 85.00 °C.

As for `C[Si](C)(C)C1C=CC=C1` [Cyclopentadienyltrimethylsilane], the flash point is 29.00 °C.

In turn, `C[Si]1(C)O[Si](C)(C)O[Si](C)(C)O[Si](C)(C)O[Si](C)(C)O1` [Decamethylcyclopentasiloxane] returned a flash point of 77.00 °C.

Compound `CCO[Si](CC)(CC)OCC` [Diethyldiethoxysilane] gave a flash point of 43.00 °C.

As to `CO[Si](C)(C)OC` [Dimethyldimethoxysilane], the flash point is -8.00 °C.

`Cl[Si](Cl)(c1ccccc1)c1ccccc1` [Diphenyldichlorosilane] had a flash point of 142.00 °C.

`CO[Si](OC)(c1ccccc1)c1ccccc1` [Diphenyldimethoxysilane] displayed a flash point of 121.00 °C.

For the compound `c1ccc([SiH2]c2ccccc2)cc1` [Diphenylsilane], the flash point was 98.00 °C.

Compound `C[Si]1(C)O[Si](C)(C)O[Si](C)(C)O[Si](C)(C)O[Si](C)(C)O[Si](C)(C)O1` [Dodecamethylcyclohexasiloxane] displayed a flash point of 93.00 °C.

Take `C[Si](C)(C)O[Si](C)(C)O[Si](C)(C)O[Si](C)(C)O[Si](C)(C)C` [Dodecamethylpentasiloxane]: the flash point was 79.00 °C.

For `CC[Si](C)(C)Cl` [Ethyldimethylchlorosilane], the flash point was -4.00 °C.

Take `CC[SiH3]` [Ethylsilane]: the flash point was -60.00 °C.

Compound `CCCCCCCCCCCCCCCC[Si](Cl)(Cl)Cl` [Hexadecyltrichlorosilane] showed a flash point of 154.00 °C.

Take `CC[Si](CC)(CC)O[Si](CC)(CC)CC` [Hexaethyldisiloxane]: the flash point was determined as 76.00 °C.

Compound `C[Si]1(C)O[Si](C)(C)O[Si](C)(C)O1` [Hexamethylcyclotrisiloxane] returned a flash point of 32.00 °C.

For `C[Si](C)(C)N[Si](C)(C)C` [Hexamethyldisilazane], the flash point worked out at 8.00 °C.

The compound `C[Si](C)(C)S[Si](C)(C)C` [Hexamethyldisilthiane] returned a flash point of 26.00 °C.

In turn, `CC(C)C[Si](Cl)(Cl)Cl` [Isobutyltrichlorosilane] gave a flash point of 37.00 °C.

`CCO[Si](C)(OCC)OCC` [Methyltriethoxysilane] came in with a flash point of 24.00 °C.

Consider `C[Si](C)(C)N1CCOCC1` [N-(Trimethylsilyl)morpholine], for which the flash point was determined as 27.00 °C.

With `C[Si]1(C)N[Si](C)(C)N[Si](C)(C)N[Si](C)(C)N1` [Octamethylcyclotetrasilazane], the flash point came out at 66.00 °C.

As to `CCCCCCCC[Si](OCC)(OCC)OCC` [Octyltriethoxysilane], the flash point is 100.00 °C.

Turning to `C[SiH](C)O[Si](C)(C)C` [Pentamethyldisiloxane], the flash point was -19.00 °C.

As to `C[SiH](C)c1ccccc1` [Phenyldimethylsilane], the flash point worked out at 38.00 °C.

Compound `[SiH3]c1ccccc1` [Phenylsilane] displayed a flash point of 8.00 °C.

`CO[Si](OC)(OC)c1ccccc1` [Phenyltrimethoxysilane]: the flash point was 85.00 °C.

Compound `C#CCO[Si](C)(C)C` [Propargyloxytrimethylsilane] had a flash point of 27.00 °C.

Regarding `CCC[Si](O[SiH](C)C)(O[SiH](C)C)O[SiH](C)C` [Propyltris(dimethylsiloxy)silane], the flash point was 50.00 °C.

Compound `O=C=N[Si](N=C=O)(N=C=O)N=C=O` [Tetraisocyanatosilane] displayed a flash point of 50.00 °C.

With `C[SiH](C)O[Si](O[SiH](C)C)(O[SiH](C)C)O[SiH](C)C` [Tetrakisdimethylsiloxysilane], the flash point came to 67.00 °C.

`CCC[SiH](CCC)CCC` [Tri-n-propylsilane] showed a flash point of 43.00 °C.

With `Cl[Si](Cl)(Cl)CCc1ccccc1` [Trichloro(2-phenylethyl)silane], the flash point was determined as 91.00 °C.

The compound `N#CCCC[Si](Cl)(Cl)Cl` [Trichloro(3-cyanopropyl) Silane] displayed a flash point of 92.00 °C.

On to `ClC[Si](Cl)(Cl)Cl` [Trichloro(Chloromethyl) silane], for which the flash point stood at 69.00 °C.

Turning to `CC[SiH](CC)CC` [Triethylsilane], the flash point was -3.00 °C.

Consider `C=CO[Si](C)(C)C` [Trimethyl(vinyloxy)silane], for which the flash point is -10.00 °C.

As to `CCCO[Si](C)(C)C` [Trimethyl-n-propoxysilane], the flash point came to 10.00 °C.

Regarding `C[Si](C)(C)F` [Trimethylfluorosilane], the flash point was -35.00 °C.

In the case of `C=C[Si](C)(C)O[Si](C)(C)C` [Vinylpentamethyldisiloxane], the flash point was determined as 12.00 °C.

With `C=C[Si](OC)(OC)OC` [Vinyltrimethoxysilane], the flash point was 23.00 °C.

`C=C[Si](OCCOC)(OCCOC)OCCOC` [Vinyltris(methoxyethoxy)silane] yielded a flash point of 80.00 °C.

`CCCCCCCCCC[Si](C)(Cl)Cl` [n-Decylmethyldichlorosilane] yielded a flash point of 120.00 °C.

As for `CCCCCCCCCCCC[Si](C)(Cl)Cl` [n-Dodecylmethyldichlorosilane], the flash point is 143.00 °C.

Consider `CCCCCCCCCCCC[Si](Cl)(Cl)Cl` [n-Dodecyltrichlorosilane], for which the flash point turned out to be 162.00 °C.

`CCCCCC[Si](C)(Cl)Cl` [n-Hexylmethyldichlorosilane]: the flash point worked out at 85.00 °C.

`CCCCCC[Si](Cl)(Cl)Cl` [n-Hexyltrichlorosilane]: the flash point worked out at 85.00 °C.

Compound `CCCCCCCC[Si](C)(C)Cl` [n-Octyldimethylchlorosilane] came in with a flash point of 97.00 °C.

For `CCCCCCCC[Si](Cl)(Cl)Cl` [n-Octyltrichlorosilane], the flash point was 96.00 °C.

On to `CCC[Si](C)(Cl)Cl` [n-Propylmethyldichlorosilane], for which the flash point was 27.00 °C.

The compound `C[Si](C)(C)c1ccc(Cl)cc1` [p-Chlorophenyltrimethylsilane] returned a flash point of 49.00 °C.

In turn, `CC(C)(C)O[Si](C)(C)C` [t-Butoxytrimethylsilane] showed a flash point of 14.00 °C.

As to `CC(C)(C)[Si](C)(C)Cl` [t-Butyldimethylchlorosilane], the flash point is 22.00 °C.

Turning to `C[SiH](C)C(C)(C)C` [t-Butyldimethylsilane], the flash point was -22.00 °C.

Compound `CC(C)(C)[Si](C)(C)O` [t-Butyldimethylsilanol] displayed a flash point of 45.00 °C.

Source of the values: a flash point compilation (Sun et al. 2020).
